Measured values published in patent publication US8754109B2 (Intermune, Inc., priority 2010, dated 2014).

How the values were obtained:
[1] = Phase 1 open-label study: impact of CYP1A2 inhibition (fluvoxamine) and induction (smoking) on pirfenidone pharmacokinetics; format: in vivo, human; details: for effect of fluvoxamine co-administration on AUC0-∞: Day 11 vs Day 1, paired t-test; for Ratio of Day 11 AUC0-∞ to Day 1 AUC0-∞, Mean (SD) / Ratio of Day 11 AUC0-∞ to Day 1 AUC0-∞, Median (25th-75th): Day 11 with fluvoxamine; for AUC0-∞ Mean (SD) / AUC0-∞ Median (25th-75th): single 801-mg dose of pirfenidone, healthy subjects n = 51, plasma
Procedure: Fifty-four subjects were to be enrolled in two groups, consisting of 27 subjects who were smokers (Group 1) and 27 subjects who were nonsmokers (Group 2). Each group (smokers and nonsmokers) was to include a minimum of nine females and nine males, and attempts were to be made to enroll equal numbers of each sex in each group.
All pharmacokinetic (PK) analyses were conducted using population PK methods using Monte-Carlo parametric expectation maximization as implemented in the open-source software program S ADAPT 1.5.6 (Bauer et al., AAPS Journal 9 (1):E60-83, 2007). The structural model for the analysis was obtained from a preliminary population PK analysis.
If other subject characteristics (such as body size or age) were also associated with the ratio of AUC0-∞ on Day 11 to that on Day 1, the significance of these covariates was also tested.

CYP1A2 = CYP1A2 (Homo sapiens, UniProt P05177); experiment: in vitro experiments on pirfenidone metabolism by CYP isoforms; format: in vitro ADME
[2] = system: multiple other CYPs (1A1, 2A6, 2B6, 2C8, 2C9, 2C18, 2C19, 2D6, 2E1, 2J2, 3A4, 3A5, 4A11, and 4F2); experiment: as above; format: in vitro ADME; details: each isoform
[3] = pirfenidone therapy, oral; cited from earlier work

CYP1A2, sequence (P05177 whole entry, canonical isoform): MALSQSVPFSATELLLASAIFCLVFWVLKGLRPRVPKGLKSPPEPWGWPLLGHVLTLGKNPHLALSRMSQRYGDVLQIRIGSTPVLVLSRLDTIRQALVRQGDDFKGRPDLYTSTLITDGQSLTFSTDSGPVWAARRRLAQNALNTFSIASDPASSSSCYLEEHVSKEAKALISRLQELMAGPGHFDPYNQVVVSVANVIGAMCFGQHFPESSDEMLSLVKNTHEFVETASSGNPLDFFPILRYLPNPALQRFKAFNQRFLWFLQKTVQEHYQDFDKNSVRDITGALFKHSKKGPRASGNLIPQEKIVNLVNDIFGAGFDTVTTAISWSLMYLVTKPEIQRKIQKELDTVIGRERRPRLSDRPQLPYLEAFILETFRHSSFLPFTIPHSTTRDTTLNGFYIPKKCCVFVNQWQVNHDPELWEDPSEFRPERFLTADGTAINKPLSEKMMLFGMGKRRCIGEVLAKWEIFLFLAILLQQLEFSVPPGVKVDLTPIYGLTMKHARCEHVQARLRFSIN

Structure (SMILES) | drop in AUC0-∞ in smokers after accounting for differences in BSA ([1]; Day 1 estimates, AUC0-∞ normalized to body surface area, multiple linear regression, smokers vs nonsmokers) | effect of fluvoxamine co-administration on AUC0-∞ [1] | increase in Cmax after administration of fluvoxamine, on average ([1]; after administration of fluvoxamine) | exposure (AUC0-∞) times higher after fluvoxamine, on average ([1]; after ten days of dosing with fluvoxamine) | decrease in pirfenidone exposure (AUC0-∞) in patients that concomitantly smoke, on average ([1]; compared to patients that do not smoke) | exposure (AUC0-∞) in patients who smoke as % of exposure in patients that didn't smoke, on average ([1]; smokers vs nonsmokers) | share of pirfenidone metabolism by CYP1A2 (CYP1A2) | share of pirfenidone metabolism by each of the other CYPs [2] | incidence of most common adverse reactions (nausea, rash, dyspepsia, dizziness, vomiting, photosensitivity reaction, anorexia) [3] | ratio of Cmax on Day 11 to the Cmax on Day 1, mean (95% CI) ([1]; Day 11 after fluvoxamine vs Day 1, all subjects) | Ratio of Day 11 AUC0-∞ to Day 1 AUC0-∞, Mean (SD) ([1]; Nonsmokers (N 25)) | Ratio of Day 11 AUC0-∞ to Day 1 AUC0-∞, Median (25th-75th) ([1]; Nonsmokers (N 25)) | Ratio of Day 11 AUC0-∞ to Day 1 AUC0-∞, Mean (SD) ([1]; Smokers (N 26)) | Ratio of Day 11 AUC0-∞ to Day 1 AUC0-∞, Median (25th-75th) ([1]; Smokers (N 26)) | AUC0-∞ Mean (SD) ([1]; Study Day 1: Pre-Fluvoxamine) | AUC0-∞ Median (25th-75th) ([1]; Study Day 1: Pre-Fluvoxamine) | AUC0-∞ Mean (SD) ([1]; Study Day 11: Post-Fluvoxamine) | AUC0-∞ Median (25th-75th) ([1]; Study Day 11: Post-Fluvoxamine)
Cc1ccc(=O)n(-c2ccccc2)c1 [Pirfenidone, 5-methyl-1-phenyl-2-(1H)-pyridone, reference compound] | ~50% | significant increase | two-fold | ~6 times | about 50% | about 50% | approx. 48% | < 13% | > 10% |  |  |  |  |  |  |  |  | 
O=C(O)c1ccc(=O)n(-c2ccccc2)c1 [5-Carboxy-Pirfenidone, 5-carboxy-pirfenidone] |  | not a statistically significant effect |  |  |  |  |  |  |  | 0.369 (0.349-0.390) | 1.05 (0.114) | 1.03 (0.978-1.11) | 1.12 (0.0951) | 1.13 (1.04-1.19) | 29.3 (8.22) mg · hr/L | 26.9 (22.0-33.7) mg · hr/L | 31.7 (8.96) mg · hr/L | 29.4 (25.4-36.5) mg · hr/L
